96 molecules from ChEMBL document CHEMBL3507680, “University of Dundee, Gates Library screen for HepG2 cell viability” can be followed below.

A short description of this data set: Human HepG2 cell viability assay in 384 well format. It is filed as toxicity, cell-based. Set-up: dose 125 nL, time 70.5 hour; cytotoxicity at 70.5 h: concentration not given beside the values. Particulars: HepG2 cells, read-out: Inhibition.
Regarding `COc1cccc(Cl)c1-c1cc(CN)ccc1F`, the cytotoxicity at 70.5 h is -13.8%.

As for `O=C(c1sccc1Cl)N1CCC(Cn2cc(CO)nn2)CC1`, the cytotoxicity at 70.5 h is -4.2%.

On to `Cc1ccc(N2CCC(C(O)Cc3ccccc3)CC2)nn1` (stereo unspecified), for which the cytotoxicity at 70.5 h was 1.34%.

Regarding `NC(=O)COc1ccc(CN2CCC3(CC2)[C@H](O)C[C@@H]3O)cc1Cl`, the cytotoxicity at 70.5 h worked out at 19.2%.

Regarding `COCCN(Cc1cccs1)C(=O)c1ccc(=O)n(C)c1`, the cytotoxicity at 70.5 h is -10.2%.

Turning to `O=C(Nc1ccc2scnc2c1)N1CCN([C@H]2CCCC[C@@H]2O)CC1`, the cytotoxicity at 70.5 h is -13.6%.

As for `Cc1n[nH]c(C)c1CCNC(=O)C1CCCN(CC(N)=O)C1` (stereo unspecified), the cytotoxicity at 70.5 h is -1.91%.

In the case of `Cc1cnc(C)c(N2CCC(c3nccn3Cc3cscn3)CC2)n1`, the cytotoxicity at 70.5 h came to 14.9%.

With `CC(C)[C@@H]1CN(C(=O)c2ccc3c(c2)CCCO3)C[C@H]1NS(C)(=O)=O`, the cytotoxicity at 70.5 h is -1.93%.

`CCCSc1ncc(CN2CCN(C)C(=O)C2C)cn1` (stereo unspecified): the cytotoxicity at 70.5 h amounted to 20.3%.

Take `Cc1[nH]c2ccc(CNc3cc(C(=O)NC(C)C)ccn3)cc2c1C`: the cytotoxicity at 70.5 h was -1.62%.

With `Cc1cc(C(=O)N2CCC(CCn3cccn3)CC2)c(C)o1`, the cytotoxicity at 70.5 h was -5.22%.

Regarding `COc1ccc(CN2CCC3(CCCN(C)C3=O)C2)c(OC)c1C` (stereo unspecified), the cytotoxicity at 70.5 h is -10.1%.

Turning to `O=C(c1cccc(S(=O)(=O)NCCCn2cccn2)c1)N1CCOCC1`, the cytotoxicity at 70.5 h was -1.43%.

For `Cc1ncc(C(=O)N2CC[C@@]3(O)CCN(C(=O)N(C)C)C[C@H]3C2)cn1`, the cytotoxicity at 70.5 h was -12.2%.

As for `COc1nc2c(cc1C(=O)NCc1nc(CSC)no1)CCC2`, the cytotoxicity at 70.5 h was -5.89%.

As to `c1ccc(C2CCCN(c3ncnc4c3CCNC4)CC2)cc1` (stereo unspecified), the cytotoxicity at 70.5 h is 2.81%.

On to `CC(=O)N1CCc2[nH]cnc2C12CCN(C(=O)Cc1cccs1)CC2`, for which the cytotoxicity at 70.5 h is -9.66%.

`Cc1nc(NC2CCS(=O)(=O)CC2)cc(C2CCCNC2)n1` (stereo unspecified): the cytotoxicity at 70.5 h is -7.39%.

For `O=C(CCN1CCCCO1)NCCSc1cnn[nH]1`, the cytotoxicity at 70.5 h was -3.27%.

On to `CNc1ccc(C)cc1C(=O)N[C@H]1C[C@H]2CN(C)CCN2C1`, for which the cytotoxicity at 70.5 h was -13.3%.

Consider `CCC(OC)C(=O)N1CCC2(CC1)c1nc[nH]c1CCN2S(C)(=O)=O` (stereo unspecified), for which the cytotoxicity at 70.5 h worked out at 32.6%.

As for `Cc1n[nH]c(CCC(=O)N2CCOC(Cc3ccc(F)cc3)C2)c1C` (stereo unspecified), the cytotoxicity at 70.5 h amounted to 10.5%.

In the case of `Cc1nc[nH]c1-c1nccn1-c1cccc(CN2CCCC2)c1`, the cytotoxicity at 70.5 h was 13%.

`CCOC(=O)CNC(=O)N1CCOC(Cc2ccc(OC)cc2)C1` (stereo unspecified): the cytotoxicity at 70.5 h was -0.738%.

With `CC(C)C1CN(S(=O)(=O)N(C)C)CCCN1Cc1ccc(F)cc1` (stereo unspecified), the cytotoxicity at 70.5 h is 2.12%.

On to `c1ccc(CCCC2CN(Cc3ncc[nH]3)CCO2)cc1` (stereo unspecified), for which the cytotoxicity at 70.5 h was -6.86%.

Consider `O=C(c1ccc(S(=O)(=O)NCc2ccon2)cc1)N1CCCCCC1`, for which the cytotoxicity at 70.5 h was -7.49%.

Take `Cc1cccnc1[C@H](C)Nc1nc(-c2cccnc2)nc2c1CNC2`: the cytotoxicity at 70.5 h was -8.07%.

For the molecule `COc1ccc2c(=O)n(CC3CCCN(C)C3)ccc2c1OC` (stereo unspecified), the cytotoxicity at 70.5 h is 10.5%.

For the molecule `Cc1nn(C2CCCC2)c2nc(C(C)(C)CN3CCN(C)CC3)[nH]c12`, the cytotoxicity at 70.5 h was -2.47%.

On to `CC(C)c1nccn1C(C)C(=O)N1CCN(c2ccccc2Cl)CC1` (stereo unspecified), for which the cytotoxicity at 70.5 h is -4.99%.

On to `CCCN1CCN(C(=O)c2cc[nH]n2)[C@H]2CS(=O)(=O)C[C@H]21`, for which the cytotoxicity at 70.5 h was -11.3%.

With `O=C(O)c1cc(C2=CCCCC2)cc(S(=O)(=O)NCc2ccccn2)c1`, the cytotoxicity at 70.5 h was -8.44%.

As for `CC(C)c1nnc(N2C[C@@H]3CC[C@H](C2)N(CC2CCC2)C3)s1`, the cytotoxicity at 70.5 h was -2.56%.

`CC(C)c1ncc(CN2C[C@@H](CN3CCCC3)[C@@H](CO)C2)cn1`: the cytotoxicity at 70.5 h was found to be 0.637%.

For `COc1cc(N2C[C@@H]3CC[C@H](C2)N(CC2CCC2)C3=O)ncn1`, the cytotoxicity at 70.5 h is -3.49%.

Consider `O=C1CCN(Cc2cnc3c(-c4ccccc4)cnn3c2)CCN1`, for which the cytotoxicity at 70.5 h was -9.5%.

On to `Cc1ccc(OCC2CCCN(c3nc(CO)cs3)C2)cc1` (stereo unspecified), for which the cytotoxicity at 70.5 h was -0.763%.

`O=C(NCc1cnn2cccnc12)c1cccc(CC2CCNCC2)c1`: the cytotoxicity at 70.5 h was found to be 5.06%.

Regarding `CC(C)=CCCC(C)CN1CCC(n2cc(CO)nn2)CC1` (stereo unspecified), the cytotoxicity at 70.5 h was -4.45%.

With `CN(CC(=O)N1CCOCC(CO)C1)Cc1ccc(F)cc1` (stereo unspecified), the cytotoxicity at 70.5 h was -12.7%.

On to `O=C(C1CCOC1)N1CCC(Cn2cc(-c3ccsc3)nn2)CC1` (stereo unspecified), for which the cytotoxicity at 70.5 h is -11.1%.

For the molecule `COc1ncccc1-c1ncccc1NC(=O)C(C)C`, the cytotoxicity at 70.5 h was -6.31%.

With `CCn1c(CC2CCN(S(=O)(=O)N3CCCCC3)CC2)nn(C)c1=O`, the cytotoxicity at 70.5 h is -3.16%.

For `O=C(N1CCCC1)N1CCCC(c2nccn2Cc2ccncc2)C1` (stereo unspecified), the cytotoxicity at 70.5 h was -8.72%.

As for `Cc1nnc(NC(=O)N2CCN(Cc3ccc(F)cc3)C(=O)C2)s1`, the cytotoxicity at 70.5 h was 1.21%.

Turning to `CN(C)c1nc(-c2ccncc2)nc2c1CCN(C(=O)[C@H](N)CO)C2`, the cytotoxicity at 70.5 h was -6.08%.

Turning to `Cc1ccc(C(=O)N2CCC(c3nccn3C(C)C)CC2)c(=O)[nH]1`, the cytotoxicity at 70.5 h was -6.37%.

In the case of `O=C(O)C1(n2cccn2)CCN(c2nc(-c3ccccc3)no2)CC1`, the cytotoxicity at 70.5 h came to 0.502%.

As for `O=C(NCCc1ccccc1)c1cn(CCNCc2cccnc2)nn1`, the cytotoxicity at 70.5 h is -6.19%.

On to `CCCN1CCN(Cc2cn(CCC(N)=O)c3ccccc23)CC1`, for which the cytotoxicity at 70.5 h was -3.42%.

`Cc1cccnc1C(Nc1nccc(C2CCCC2)n1)C1CC1` (stereo unspecified): the cytotoxicity at 70.5 h amounted to 0.357%.

For `CCC(=O)c1ccc(OCC(=O)NC(C)c2nnc(C)[nH]2)cc1` (stereo unspecified), the cytotoxicity at 70.5 h was -3.79%.

Regarding `Cc1nc(NCC23CCCN2CCC3)cc(C2CCCNC2)n1` (stereo unspecified), the cytotoxicity at 70.5 h is -4.8%.

On to `N[C@@H]1CCN(Cc2ccccc2CS(=O)(=O)c2ccccc2)C[C@H]1O`, for which the cytotoxicity at 70.5 h is -8.1%.

`Cc1ccc(C#N)c(N2CCCC(c3nccn3Cc3cscn3)C2)n1` (stereo unspecified): the cytotoxicity at 70.5 h was -3.22%.

For the molecule `Cc1nnc(CN2CCC3(CCC(=O)N(C4CC4)C3)CC2)o1`, the cytotoxicity at 70.5 h is 11.6%.

As for `Cc1cc(-c2nn(C)c(Cl)c2CN2CC[C@H](CO)[C@@H](O)C2)no1`, the cytotoxicity at 70.5 h is 8.05%.

In the case of `COC(=O)c1cc2n(n1)CCCN(C(=O)Cc1c[nH]c3ccccc13)C2`, the cytotoxicity at 70.5 h is -13.9%.

For `COc1cc(-n2ccnc2-c2ccc(C(=O)O)s2)ccc1NC(C)=O`, the cytotoxicity at 70.5 h is -7.67%.

Regarding `Cc1ccc(C2(O)CCN(C(=O)c3cccc(S(C)(=O)=O)c3)CC2)nc1`, the cytotoxicity at 70.5 h was -4.42%.

With `CC(C)N1CCCC2(CCN(Cc3noc(C4CCCC4)n3)C2)C1=O` (stereo unspecified), the cytotoxicity at 70.5 h was determined as 11%.

For the molecule `CCc1cnc(N)nc1NCCCn1cc(Cl)cn1`, the cytotoxicity at 70.5 h is -5.81%.

Take `COc1ccnc(N2CCC3(CCCN(C(C)C)C3=O)C2)n1` (stereo unspecified): the cytotoxicity at 70.5 h was -1.71%.

Turning to `O=C(c1ccc(O)cn1)N1CCOC(c2ccc(Cl)c(Cl)c2)C1` (stereo unspecified), the cytotoxicity at 70.5 h is -3.33%.

In the case of `CC(CC(F)(F)F)NCc1ccccc1-n1ccnc1` (stereo unspecified), the cytotoxicity at 70.5 h is -10.9%.

For `c1ccc(-c2nc3c(c(NCCCn4cncn4)n2)CCNCC3)nc1`, the cytotoxicity at 70.5 h is -13.5%.

In the case of `CC(C)(C)c1nc(CN2CCC3(CCCO3)CCC2=O)no1` (stereo unspecified), the cytotoxicity at 70.5 h is -5.98%.

Consider `COc1ccc(F)c(CN2CCCC(c3cc(O)nc(C)n3)C2)c1` (stereo unspecified), for which the cytotoxicity at 70.5 h is -3.96%.

As for `Cc1ncsc1CCN(C)C(=O)CN1CCOC1=O`, the cytotoxicity at 70.5 h is 8.27%.

With `O=c1cc(CN2CC[C@H]3CC[C@@H](C2)N3)c2cccc3c2n1CCC3`, the cytotoxicity at 70.5 h was -14.4%.

On to `COCCN1CC2(CCCN(c3ncc(Cl)cc3F)C2)CCC1=O` (stereo unspecified), for which the cytotoxicity at 70.5 h came out at 3.19%.

For `Cc1cc(N2CCC(CO)(CC3CCCCO3)CC2)c2ccccc2n1` (stereo unspecified), the cytotoxicity at 70.5 h is 2.86%.

In the case of `CN(C)c1nc2c(c(N(C)C)n1)CCN(C(=O)CN1C[C@@H]3CC[C@H]1C3)C2`, the cytotoxicity at 70.5 h is -6.59%.

Regarding `CC1(C)OC(=O)N(CCCC(=O)c2ccc(F)cc2)C1=O`, the cytotoxicity at 70.5 h is -16.8%.

Turning to `COc1ccccc1-n1cc(CN2CCN(C)[C@@H]3CS(=O)(=O)C[C@@H]32)cn1`, the cytotoxicity at 70.5 h was -7.42%.

Turning to `Cc1ccc(CNC(=O)CCN2CCOC(C(F)(F)F)C2)cc1` (stereo unspecified), the cytotoxicity at 70.5 h is -2.06%.

On to `CC(CN1CCCC1)C(=O)NCC1CCN(c2cnn(C)c(=O)c2)CC1` (stereo unspecified), for which the cytotoxicity at 70.5 h is -5.06%.

Regarding `Cc1ccc(Oc2ncccc2CNS(=O)(=O)N2CCOCC2)cn1`, the cytotoxicity at 70.5 h was -4.6%.

On to `CC(C)n1ccnc1C1CCCN(c2ccncc2F)C1` (stereo unspecified), for which the cytotoxicity at 70.5 h was -5.94%.

`COCC1CCN(S(=O)(=O)NCC2COc3ccccc3C2)CC1` (stereo unspecified): the cytotoxicity at 70.5 h was 13.9%.

As to `COc1ccc2c(C)c(C(=O)N3CCC(NC(C)=O)C3)oc2c1` (stereo unspecified), the cytotoxicity at 70.5 h was -3.36%.

In the case of `Cc1c(Cl)c(C(=O)N2C[C@@H](C(=O)O)[C@H](c3cccnc3)C2)nn1C`, the cytotoxicity at 70.5 h came to 8.35%.

In the case of `Cc1ccc2c(C)c(C(=O)NCCc3csc(N)n3)oc2c1`, the cytotoxicity at 70.5 h turned out to be 7.44%.

Regarding `Cc1ccc(C2(CN(C)Cc3sccc3C)CCNCC2)nc1`, the cytotoxicity at 70.5 h was determined as 10.6%.

Regarding `Cc1ccc(OC2CCN(C(=O)Cc3c(C)[nH]c(=O)[nH]c3=O)CC2)cc1`, the cytotoxicity at 70.5 h is -10.2%.

As for `CCc1nc2c(N3CCCC(c4nccn4CCOC)C3)ncnc2o1` (stereo unspecified), the cytotoxicity at 70.5 h turned out to be 26.1%.

In the case of `CCCn1cnnc1CNC(=O)CC1C(=O)NCCN1CC=C(C)C` (stereo unspecified), the cytotoxicity at 70.5 h is -0.65%.

For the molecule `O=C(c1ccc(Cl)s1)N1CCCn2nc(CN3CC[C@H](F)C3)cc2C1`, the cytotoxicity at 70.5 h was -10.2%.

`CCCn1ncc(CN2CCCC(C(=O)c3ccc(Cl)cc3C)C2)c1C` (stereo unspecified): the cytotoxicity at 70.5 h is -7.11%.

Regarding `Cc1cccc(=O)n1CCCNc1nc(N(C)C)nc2c1CCNCC2`, the cytotoxicity at 70.5 h was -3.24%.

Turning to `Cc1c(NC(=O)c2ncn[nH]2)cccc1C(=O)NC(C)(C)C`, the cytotoxicity at 70.5 h was -12.5%.

Take `Cc1nc(-c2c(-c3ccccc3)ncn2CCCN2CCOCC2)c[nH]1`: the cytotoxicity at 70.5 h was -8.17%.

On to `Cc1ccc(C(=O)NC2CCN(C)CC2)cc1N(C)S(C)(=O)=O`, for which the cytotoxicity at 70.5 h is -6.98%.

As to `COc1ccccc1Oc1ncccc1CNC(=O)[C@@H](N)CCO`, the cytotoxicity at 70.5 h is 8.7%.
